Entries after “also recorded” stand apart in the source; their conditions may differ.
Tests used:
Type in all cases: cell-based
chicken CTR + RAMPs = assay: Western blot CREB phosphorylation, CTR + RAMPs in CHO cells; conditions: 10 nM, 10 min, n = 3
Procedure: (§1) To assess whether the activation of chicken CTR and CLR, along with the presence of RAMPs, can augment the phosphorylation levels of cAMP response element-binding protein (CREB), 200 ng of CTR or CLR expression plasmids were combined with 1000 ng of chicken RAMPs or an empty pcDNA3.1 (+) vector in a 100 μL buffer. The resulting mixture was then transfected into CHO cells in a 12-well plate (Nunc, Rochester, NY, USA) using 3.6 μL of PEI MAX transfection reagent. After a 24 h incubation period, the cells were exposed to chicken CT (10 nM) or CGRP (10 nM) for 10 min. Subsequently, the culture medium was removed, and the cells were lysed according to the manufacturer’s instructions. Western blot analysis was performed to quantify the levels of CREB and phosphorylated CREB (p-CREB). The optical densities were analyzed and normalized using the software, ImageJ 1.52a (National Institutes of Health, Bethesda, MD, USA). The relative expression of p-CREB/CREB was determined by calculating the ratio of the optical density to that of the control without peptide treatment (0 min).

chicken CTR + RAMP3 = assay: MAPK/ERK pGL4-SRE-luciferase reporter assay, CTR + RAMP3 in CHO cells; conditions: 10^−12 M to 10^−6 M, 6 h, mean ± SEM, n = 3, read-out: EC50, MAPK/ERK signaling pathway
Procedure: (§2) Chinese hamster ovary (CHO) cells were cultured in Dulbecco’s modified Eagle’s medium (DMEM) supplemented with 10% (vol/vol) fetal bovine serum (HyClone, Logan, UT, USA), 100 U/mL penicillin G and 100 μg/mL streptomycin. The cells were maintained in a 90 mm culture dish (Nunc, Rochester, NY, USA) and incubated at 37 °C with 5% CO2. To investigate the signaling pathways associated with each receptor in CHO cells, three different reporter systems (pGL3-CRE-luciferase, pGL4-SRE-luciferase, and pGL3-NFAT-RE-luciferase) were utilized to monitor intracellular cAMP/PKA and MAPK/ERK signaling pathways and calcium mobilization of the activated receptors, respectively.
(§3) Prior to the transfection procedure, the cells were initially cultured in 6-well plates (Nunc, Rochester, NY, USA), maintaining a seeding density of approximately 300,000 cells per well. Upon achieving approximately 70% confluence, the cells underwent a co-transfection process. […] The fluorescence activity of the luciferase in each treatment group was measured using a multimode microplate reader (TriStar LB941, Berthold Technologies, Bad Wildbad, Germany). Finally, the fluorescence activity of each treatment group was expressed as a relative increase ratio compared to the control group.

chicken CTR + RAMP1 = assay: Calcium pGL3-NFAT-RE-luciferase reporter assay, CTR + RAMP1 in CHO cells; conditions: 10^−12 M to 10^−6 M, 6 h, mean ± SEM, n = 3, read-out: EC50, calcium signaling pathway
Procedure: as §2, §3

chicken CLR + RAMP1 [1] = assay: MAPK/ERK pGL4-SRE-luciferase reporter assay, CLR + RAMP1 in CHO cells; conditions: 10^−12 M to 10^−6 M, 6 h, mean ± SEM, n = 3, read-out: EC50, MAPK/ERK signaling pathway
Procedure: as §2, §3

[2] = system: chicken CTR in the absence or presence of RAMPs; assay: cAMP/PKA pGL3-CRE-luciferase reporter assay, CTR without and with RAMPs compared; conditions: CHO cells, pGL3-CRE-luciferase
Procedure: as §2
(§4) Prior to the transfection procedure, the cells were initially cultured in 6-well plates (Nunc, Rochester, NY, USA), maintaining a seeding density of approximately 300,000 cells per well. Upon achieving approximately 70% confluence, the cells underwent a co-transfection process. This procedure entailed the introduction of 700 ng of various luciferase reporter constructs (namely, pGL3-CRE-luciferase, pGL4-SRE-luciferase, or pGL3-NFAT-RE-luciferase) combined with 200 ng of a specific receptor plasmid (CTR or CLR) and 1000 ng of either RAMP1, RAMP2, RAMP3 expression plasmids, or alternatively, the empty pcDNA3.1 (+) vector. A volume of 5.7 μL of PEI MAX was used in 200 μL of buffer following the manufacturer’s protocol. After 24 h of incubation, the transfected CHO cells were subcultured in 96-well plates and passaged for an additional 24 h before peptide treatment. Then, the medium from the 96-well plates was removed, and the cells were treated with chicken CT/CGRP-containing medium (or untreated medium as a control) at concentrations ranging from 10^−12 M to 10^−6 M for 6 h. […] The fluorescence activity of the luciferase in each treatment group was measured using a multimode microplate reader (TriStar LB941, Berthold Technologies, Bad Wildbad, Germany). Finally, the fluorescence activity of each treatment group was expressed as a relative increase ratio compared to the control group.

chicken CLR + RAMPs = assay: Western blot CREB phosphorylation, CLR + RAMPs in CHO cells; conditions: 10 nM, 10 min, n = 3
Procedure: as §1

chicken CTR [3] = assay: Western blot CREB phosphorylation, CTR in CHO cells; conditions: 10 nM, 10 min, n = 3
Procedure: as §1

chicken CLR + RAMP2 = assay: cAMP/PKA pGL3-CRE-luciferase reporter assay, CLR + RAMP2 in CHO cells; conditions: 10^−12 M to 10^−6 M, 6 h, mean ± SEM, n = 3, read-out: EC50, cAMP/PKA signaling pathway
Procedure: as §2, §3

chicken CLR + RAMP3 = assay: cAMP/PKA pGL3-CRE-luciferase reporter assay, CLR + RAMP3 in CHO cells; conditions: 10^−12 M to 10^−6 M, 6 h, mean ± SEM, n = 3, read-out: EC50, cAMP/PKA signaling pathway
Procedure: as §2, §3

chicken CLR + RAMP1 [4] = assay: Calcium pGL3-NFAT-RE-luciferase reporter assay, CLR + RAMP1 in CHO cells; conditions: 10^−12 M to 10^−6 M, 6 h, mean ± SEM, n = 3, read-out: EC50, calcium signaling pathway
Procedure: as §2, §3

[5] = system: chicken CLR in the absence or presence of RAMPs; assay: cAMP/PKA pGL3-CRE-luciferase reporter assay, CLR without and with RAMPs compared
Procedure: as §2
Prior to the transfection procedure, the cells were initially cultured in 6-well plates (Nunc, Rochester, NY, USA), maintaining a seeding density of approximately 300,000 cells per well. Upon achieving approximately 70% confluence, the cells underwent a co-transfection process. This procedure entailed the introduction of 700 ng of various luciferase reporter constructs (namely, pGL3-CRE-luciferase, pGL4-SRE-luciferase, or pGL3-NFAT-RE-luciferase) combined with 200 ng of a specific receptor plasmid (CTR or CLR) and 1000 ng of either RAMP1, RAMP2, RAMP3 expression plasmids, or alternatively, the empty pcDNA3.1 (+) vector. A volume of 5.7 μL of PEI MAX was used in 200 μL of buffer following the manufacturer’s protocol. After 24 h of incubation, the transfected CHO cells were subcultured in 96-well plates and passaged for an additional 24 h before peptide treatment. Then, the medium from the 96-well plates was removed, and the cells were treated with chicken CT/CGRP-containing medium (or untreated medium as a control) at concentrations ranging from 10^−12 M to 10^−6 M for 6 h. Subsequently, the cells were harvested for luciferase assays by lysing them in 1 × passive lysis buffer. To measure the luciferase activity of the cell lysate, 40 μL of luciferase assay reagent (Promega, Madison, WI, USA) was mixed with the cell lysate following the manufacturer’s instructions. The fluorescence activity of the luciferase in each treatment group was measured using a multimode microplate reader (TriStar LB941, Berthold Technologies, Bad Wildbad, Germany). Finally, the fluorescence activity of each treatment group was expressed as a relative increase ratio compared to the control group.

chicken CTR [6] = assay: Calcium pGL3-NFAT-RE-luciferase reporter assay, CTR + pcDNA in CHO cells; conditions: 10^−12 M to 10^−6 M, 6 h, mean ± SEM, n = 3, read-out: EC50, calcium signaling pathway
Procedure: as §2, §3

chicken CLR + RAMP1 [7] = assay: cAMP/PKA pGL3-CRE-luciferase reporter assay, CLR + RAMP1 in CHO cells; conditions: CLR + RAMP1, CHO cells, pGL3-CRE-luciferase, 10^−12 M to 10^−6 M, 6 h; mean ± SEM, n = 3; read-out: EC50, cAMP/PKA signaling pathway
Procedure: as §2, §4

chicken CTR [8] = assay: MAPK/ERK pGL4-SRE-luciferase reporter assay, CTR + pcDNA in CHO cells; conditions: 10^−12 M to 10^−6 M, 6 h, mean ± SEM, n = 3, read-out: EC50, MAPK/ERK signaling pathway
Procedure: as §2, §3

chicken CTR + RAMP2 [9] = assay: MAPK/ERK pGL4-SRE-luciferase reporter assay, CTR + RAMP2 in CHO cells; conditions: 10^−12 M to 10^−6 M, 6 h, mean ± SEM, n = 3, read-out: EC50, MAPK/ERK signaling pathway
Procedure: as §2, §3

chicken CTR + RAMP2 [10] = assay: cAMP/PKA pGL3-CRE-luciferase reporter assay, CTR + RAMP2 in CHO cells; conditions: 10^−12 M to 10^−6 M, 6 h, mean ± SEM, n = 3, read-out: EC50, cAMP/PKA signaling pathway
Procedure: as §2, §3

calcitonin [CT] was tested, and the “CREB phosphorylation (p-CREB/CREB vs. control, 0 min)” value (chicken CTR + RAMPs) was “significantly increased the CREB phosphorylation”, the EC50 (chicken CTR + RAMP3) was 0.38 ± 0.13 nM and the EC50 (chicken CTR + RAMP1) was greater than 100 nM. The EC50 (chicken CLR + RAMP1 [1]) was 0.89 ± 0.2 nM, the “effect of RAMP co-expression on sensitivity of CTR” value [2] was “does not markedly influence the sensitivity of chicken CTR for CT; also recorded: a slight decrease in sensitivity towards CT” and the “CREB phosphorylation (p-CREB/CREB vs. control, 0 min)” value (chicken CLR + RAMPs) was “significantly enhanced the CREB phosphorylation”. For the same substance, the “CREB phosphorylation (p-CREB/CREB vs. control, 0 min)” value (chicken CTR [3]) was “significantly increased the CREB phosphorylation”, the EC50 (chicken CLR + RAMP2) was 0.93 ± 0.15 nM and the EC50 (chicken CLR + RAMP3) was 1.27 ± 0.83 nM. The EC50 (chicken CLR + RAMP1 [4]) was 5.81 ± 5.75 nM, the “effect of RAMP co-expression on sensitivity of CLR” value ([5]; CHO cells, pGL3-CRE-luciferase) was “a slight reduction in chicken CLR’s sensitivity to CT in the presence of RAMP1” and the “rank order of receptor sensitivity” value ([5]; CLR without/with RAMPs) was “CLR ≈ CLR + RAMP2 ≈ CLR + RAMP3 > CLR + RAMP1”. For the same substance, the EC50 ([5]; CLR without/with RAMPs, read-out: EC50 range over CLR, CLR + RAMP2, CLR + RAMP3, CLR + RAMP1) was 0.75 to 3.3 nM, the EC50 (chicken CTR [6]) was 61.1 ± 8.55 nM and the EC50 (chicken CLR + RAMP1 [7]) was 3.3 ± 0.96 nM. It also gave an EC50 (chicken CTR [8]) of 0.15 ± 0.05 nM, an EC50 (chicken CTR + RAMP2 [9]) of 2.09 ± 0.42 nM and an EC50 (chicken CTR + RAMP2 [10]) of 0.67 ± 0.1 nM.

— PMC11010885, “Functional Analysis and Tissue-Specific Expression of Calcitonin and CGRP with RAMP-Modulated Receptors CTR and CLR in Chickens” (Animals : an Open Access Journal from MDPI, 2024)
